From the METLIN SMRT retention time set (Domingo-Almenara et al. 2019)

Test: gradient 5% acetonitrile 3 min, to 50% in 2 min, to 85% in 15 min, held 3 min, 100 µL/min
Settings: column: Zorbax Extend-C18 2.1 x 50 mm; eluents: water / acetonitrile, 0.1% formic acid
Summary of the method: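 In both positive and negative ionization mode, a quadrupole time-of-flight mass spectrometer coupled to HPLC analyzed pure standards run in mixtures of ~100 molecules. The Zorbax Extend-C18 column (2.1 × 50 mm, 1.8 μm) was operated at 100 μL/min with water and acetonitrile, each containing 0.1% formic acid. The dead volume was 40 μL and the dwell volume 900 μL. Retention time came from adduct peaks that were computationally picked and individually inspected by hand.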

Structure (SMILES) | RP-LC retention time
CSc1ccccc1CN1CCC(CNC(=O)C(=O)NCc2cccs2)CC1 | 595 s
Cc1cc(C)cc(NC(=O)Cn2cccc(-c3nc(-c4ccc(Br)cc4)no3)c2=O)c1 | 1060 s
CCN1CCN(S(=O)(=O)c2cc(-c3nnc(C4CCCC4)o3)co2)CC1 | 637 s
CSc1nc(NCCN(C)C)c(C#N)c(-c2ccccc2)n1 | 642 s
CCC(CN1CCOCC1)NC(=O)c1c2c(nc3ccccc13)C(=O)N(C1CCCCC1)C2 (stereo not given) | 610 s
Cc1nc(CC(=O)NC2CCCC2)sc1C(=O)NCc1ccccc1 | 734 s
O=C(Nc1ccc(OCc2nnc(-c3ccccc3)o2)cc1)c1cncc(Br)c1 | 883 s
COc1cccc(C(=O)Nc2nnc(C3CC(=O)N(c4ccccc4)C3)o2)c1 (stereo not given) | 690 s
COC(=O)c1sccc1NC(=O)C1CCN(Cc2nc(-c3ccc(OC)c(OC)c3)no2)CC1 | 747 s
CCc1noc([C@@H]2CC(F)(F)CN2C(=O)c2cnco2)n1 | 690 s
Cc1cc(Cl)ccc1S(=O)(=O)N1CCc2nn(CC(C)C)c(=O)n2CC1 | 919 s
Cc1cccc(-c2noc(C3CCCN3C(=O)C3CC(=O)N(c4ccc(C)c(C)c4)C3)n2)c1 (stereo not given) | 1030 s
CC(C)CCNC(=O)N1C[C@@H]2CCCN3CCC[C@@H]([C@H]23)[C@H]1CCCC(=O)NCC1CC1 | 625 s
COc1ccc(C(=O)N2CC(n3cc(COCC4CC4)nn3)C2)cc1F | 620 s
O=C(CCn1cnc2cc(-c3noc(-c4cncc(Br)c4)n3)ccc21)N1CCCCCC1 | 814 s
O=C(c1ccc(F)c(F)c1)N1CCN(c2nc(CN3CCCC3)cs2)CC1 | 635 s
Cc1cc(N2CCCCC2C)n2nc(-c3ccccc3)nc2n1 (stereo not given) | 966 s
CCCNC(=O)C1CCCN(S(=O)(=O)c2cc(-c3noc(C4CCCC4)n3)cs2)C1 (stereo not given) | 1050 s
COc1ccc(N2C=C(C(=O)N3CCCC3)S(=O)(=O)c3ccc(Cl)cc32)cc1OC | 816 s
Cc1nc(-c2cc3ccccc3nc2N2CCN(C(=O)c3cccs3)CC2)no1 | 894 s
COCCC1(NS(C)(=O)=O)CCN(C(=O)NC(C)C)CC1 | 588 s
Fc1cc(-c2cccc3ncc(-c4cnn(C5CCNCC5)c4)nc23)cc(F)c1CN1CCOCC1 | 611 s
Cc1ccc(Cl)cc1NS(=O)(=O)c1ccc2onc(C(=O)N3CCCC3)c2c1 | 1030 s
Cc1ccccc1-c1nc(CN2CCN(C(=O)NC3CCCC3)CC2)c(C)o1 | 672 s
O=C(CC1CCCCC1)N1CCC(c2ccncc2)CC1 | 622 s
COc1ccc(CNC(=O)NCC2(CO)CC2)cc1OC | 590 s
O=C(NCc1csc(C2CCN(C(=O)COc3ccccc3)CC2)n1)C1CC1 | 701 s
Cc1ccc(-c2noc(-c3nc(-c4ccccn4)no3)n2)cc1 | 1090 s

Structure (SMILES) | RP-LC retention time
Cc1ccc(-c2noc(-c3cccc(S(=O)(=O)Nc4cccc(C#N)c4)c3)n2)cc1 | 1160 s
COc1ccc(S(=O)(=O)N2CCCC(C(=O)NC3CC3)C2)cc1Cl (stereo not given) | 780 s
COc1ccc(-c2noc(Cn3cnc4c(cnn4-c4ccc(OC)cc4)c3=O)n2)cc1 | 982 s
CC(C)n1c(=O)sc2cc(S(=O)(=O)N3CCC(C(=O)NCCc4cccs4)CC3)ccc21 | 910 s
O=C(NCc1csc(C2CCN(C(=O)c3ccc(Cl)cc3)CC2)n1)C1CC1 | 725 s
Cc1ccc(CCC(=O)Nc2c(C)cccc2C(=O)O)o1 | 726 s
O=C(O)c1ccc(N2CCOCC2)c(NC(=O)c2ccc(Br)cc2)c1 | 828 s
COc1ccccc1N1C(=O)CC(Sc2ccccc2N)C1=O (stereo not given) | 865 s
O=C(NCCCN1CCCCC1)c1ccc(-c2ccnc(N3CCCC3)n2)cc1 | 592 s
CC(C)CCNS(=O)(=O)c1cccc(-c2nc(-c3ccccc3)no2)c1 | 1230 s
O=C1NCCCn2cc(S(=O)(=O)Nc3ccc(Cl)cc3F)cc21 | 678 s
Cc1nc(CC(=O)Nc2nc(-c3ccc(Cl)cc3)c(C)s2)cs1 | 983 s
Cc1cccc(C(=O)NC2CCN(c3nnc4ccccn34)CC2)c1 | 645 s
COc1ccc(N2CCN(c3nc4c(c(Nc5ccccc5)n3)C(=O)CCC4)CC2)cc1 | 1210 s
COc1ccc(Cl)cc1NS(=O)(=O)c1ccc(-c2nnc(C3CCC3)o2)o1 | 958 s
CN(c1ccc(F)cc1)S(=O)(=O)N1CCCC(C(=O)N2CCN(c3ncccn3)CC2)C1 (stereo not given) | 864 s
CCCN(CC1CCOC1)C(=O)Nc1cccc(F)c1C (stereo not given) | 758 s
Cc1cc(C(=O)Nc2nnc(-c3cccs3)o2)c(C)o1 | 706 s
O=C(NC1CCCC1)C1CCCN(S(=O)(=O)Cc2ccccc2Cl)C1 (stereo not given) | 915 s
COc1ccc(C(=O)NC(C)C(=O)Nc2nc3ccccc3[nH]2)cc1 (stereo not given) | 648 s
COCCNC(=O)C1CCN(S(=O)(=O)c2cc(-c3noc(C)n3)cs2)CC1 | 679 s
CCc1nnc(C2CN(C)CC23CCN(S(=O)(=O)c2ccc(F)c(C)c2)CC3)o1 (stereo not given) | 634 s
CN(C(=O)C1CCN(S(=O)(=O)c2cc(C(=O)N3CCCCCC3)cs2)CC1)C1CCCCC1 | 975 s
c1ccc2sc(C3(N4CCCC4)CCCCC3)cc2c1 | 799 s
COCCCN1C(=O)CC(N2CCN(c3ccc(F)cc3)CC2)C1=O (stereo not given) | 666 s
CCC(C)C(NC(=O)c1sccc1C)C(=O)Nc1nc2ccccc2[nH]1 (stereo not given) | 746 s
CC(C)n1cnc(S(=O)(=O)N2CCCC(C(=O)Nc3ccccc3)C2)c1 (stereo not given) | 768 s

Other lines, results leading:

RP-LC retention time | Structure (SMILES)
779 s | CCCCNC(=O)c1cn(-c2cc(-c3nc(C)no3)ccn2)cn1
666 s | Cc1cc2[nH]c(C(=O)Nc3ccc(F)cc3)c(CN3CCOCC3)c2s1
814 s | CS(=O)(=O)NCCc1ccc(CC2CCN(S(=O)(=O)c3cccnc3)CC2)cc1
580 s | Cc1nc2cccnc2n1-c1ccc(C(=O)NCCCN2CCCC2=O)cc1
784 s | COc1ccc(CC(=O)NC(CC(C)C)C(=O)Nc2nc3ccccc3[nH]2)c(Cl)c1 (stereo not given)
999 s | Cc1ccc(-n2nc(N3CCCC(C(=O)NCc4ccc(OC(C)C)cc4)C3)ccc2=O)cc1Cl (stereo not given)
840 s | O=C(CSc1ccc(NC(=O)c2cccs2)nn1)Nc1nc2ccccc2s1
678 s | Cc1noc(-c2ccc(-n3cnc(C(=O)NCCc4ccccc4)c3)nc2)n1
912 s | Cc1ccc(CNC(=O)C2(C)CCCN(C(=O)NCCc3ccccc3)C2)cc1 (stereo not given)
1170 s | CC1CCCN(c2nn(CC(=O)Nc3ccc(C(F)(F)F)cc3)c(=O)c3ccccc23)C1 (stereo not given)
641 s | COc1ncccc1C(=O)Nc1ccc2c(c1)CCC(=O)N2
696 s | COCCc1nncn1C1CCN(S(=O)(=O)c2cccc(F)c2)CC1
745 s | O=C(NCCn1c(=O)n(Cc2ccc(F)cc2)c2cccnc21)c1ccoc1
816 s | CC1Oc2ccc(S(=O)(=O)N3CCC(C(=O)NCc4ccccc4Cl)CC3)cc2NC1=O (stereo not given)
649 s | CC(C)n1c(=O)c(Nc2cccc(Cl)c2)nc2ccncc21
1000 s | Cc1ccc(-c2nc(Cn3nnc(C(=O)NCc4ccco4)c3C)c(C)o2)cc1
614 s | CCCN(C)C(=O)c1cc(=O)[nH]c2ccccc12
873 s | Cc1ccc(S(=O)(=O)N2CCC(CCC(=O)NCc3ccccc3)CC2)cc1

RP-LC retention time | Structure (SMILES)
751 s | CC1CCN(c2cc(-n3cnc(C(=O)Nc4ccc(N(C)C)cc4)c3)ncn2)CC1
918 s | CCOc1ccc(-c2[nH]ncc2CNS(=O)(=O)c2ccc(C(F)(F)F)cc2)cc1
859 s | CC1=C(C(=O)OCCc2ccccc2)C(c2ccc(C)s2)NC(=O)N1 (stereo not given)
866 s | CCn1nccc1-c1csc(S(=O)(=O)NCc2cccs2)c1
848 s | O=C(NCc1ccccc1)N1CCc2nc(-c3ccccc3)ncc2C1
613 s | CC(C)Cn1c(=O)c(C(=O)NCc2cccnc2)nc2cccnc21
1110 s | COc1ccccc1N1CCN(c2cc(SCC(=O)Nc3cccc(Cl)c3C)ncn2)CC1
619 s | COCc1cc(=O)n(CC(=O)NCc2ccccc2Cl)c(N)n1
729 s | CCn1cc(CCNC(=O)c2cc(F)ccc2Cl)c2cccnc21
701 s | CCn1c(=O)c2ccn(CC(=O)Nc3ccc4c(c3)OCCO4)c2n(CC)c1=O
660 s | CCc1noc(-c2cccnc2N2CCCN(Cc3cccc(F)c3)CC2)n1
997 s | CCOc1ccc(S(=O)(=O)N2CCC(C(=O)NCCc3csc(-c4ccccc4)n3)CC2)cc1
1040 s | Cc1cccc(NC(=O)Cn2cnc3c(sc4nc(-c5ccccc5)ccc43)c2=O)c1
581 s | CCN1CCN(C(=O)CN2C(=O)c3ccccc3Sc3ncccc32)CC1
906 s | CCCS(=O)(=O)c1nc2ccc(NS(=O)(=O)c3ccccc3Cl)cc2s1
655 s | CC1(C(=O)Nc2ccccc2)Oc2cccnc2NC1=O (stereo not given)
1030 s | COC(=O)c1cc2ccsc2n1Cc1ccccc1C#N
